Measurements as given in PubChem BioAssay AID248 (DTP/NCI, 2004).
“And” between values parts separate entries of the source, which are not always exact repeats. Identical values can stand only once. Toxic doses and inconclusive results are not listed. Rule as the data show it: active = T/C of 150% or more; inactive = T/C below 125%.

Test system: L1210 leukemia ip in BDF1 mice, survival T/C
Test: NCI In Vivo Anticancer Drug Screen. Data for tumor model L1210 Leukemia (intraperitoneal) in B6D2F1 (BDF1) mice
Conditions: endpoint: mean survival time, higher = longer survival
Outline: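 Survival endpoint. Drug-treated group vs vehicle group, expressed as T divided by C. Tumor passaged by transplantation.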

[1] = dose: 100.0 mg/kg/injection, schedule: Q01DX001 (ip), vehicle: carboxymethylcellulose (CMC)
[2] = dose: 100.0 mg/kg/injection, schedule: Q01DX009 (ip), vehicle: saline with Tween-80
[3] = dose: 200.0 mg/kg/injection, schedule: Q01DX001 (ip), vehicle: carboxymethylcellulose (CMC)
[4] = dose: 200.0 mg/kg/injection, schedule: Q01DX009 (ip), vehicle: saline with Tween-80
[5] = dose: 400.0 mg/kg/injection, schedule: Q01DX001 (ip), vehicle: carboxymethylcellulose (CMC)
[6] = dose: 100.0 mg/kg/injection, schedule: Q01DX009 (ip), vehicle: Klucel (hydroxypropylcellulose) (HPC)
[7] = dose: 200.0 mg/kg/injection, schedule: Q01DX009 (ip), vehicle: Klucel (hydroxypropylcellulose) (HPC)
[8] = dose: 400.0 mg/kg/injection, schedule: Q01DX009 (ip), vehicle: Klucel (hydroxypropylcellulose) (HPC)
[9] = dose: 100.0 mg/kg/injection, schedule: Q01DX001 (ip), vehicle: saline
[10] = dose: 200.0 mg/kg/injection, schedule: Q01DX001 (ip), vehicle: saline
[11] = dose: 400.0 mg/kg/injection, schedule: Q01DX001 (ip), vehicle: saline
[12] = dose: 50.0 mg/kg/injection, schedule: Q01DX009 (ip), vehicle: saline with Tween-80
[13] = dose: 100.0 mg/kg/injection, schedule: Q04DX003 (ip), vehicle: Klucel (hydroxypropylcellulose) (HPC)
[14] = dose: 200.0 mg/kg/injection, schedule: Q04DX003 (ip), vehicle: Klucel (hydroxypropylcellulose) (HPC)
[15] = dose: 100.0 mg/kg/injection, schedule: Q04DX003 (ip), vehicle: saline
[16] = dose: 200.0 mg/kg/injection, schedule: Q04DX003 (ip), vehicle: saline
[17] = dose: 100.0 mg/kg/injection, schedule: Q01DX009 (ip), vehicle: saline
[18] = dose: 200.0 mg/kg/injection, schedule: Q01DX009 (ip), vehicle: saline
[19] = dose: 400.0 mg/kg/injection, schedule: Q01DX009 (ip), vehicle: saline
[20] = dose: 400.0 mg/kg/injection, schedule: Q04DX003 (ip), vehicle: saline
[21] = dose: 100.0 mg/kg/injection, schedule: Q04DX003 (ip), vehicle: saline with Tween-80
[22] = dose: 200.0 mg/kg/injection, schedule: Q04DX003 (ip), vehicle: saline with Tween-80
[23] = dose: 400.0 mg/kg/injection, schedule: Q04DX003 (ip), vehicle: saline with Tween-80
[24] = dose: 75.0 mg/kg/injection, schedule: Q01DX001 (ip), vehicle: saline

Measured: T/C

CCCCCCCCCCCCCCCCSSCCCCCCCCCCCCCCCC
inactive: [1] 93 % of control | [2] 92 % of control | [3] 95 % of control | [4] 95 % of control | [5] 95 % of control | dose: 400.0 mg/kg/injection, schedule: Q01DX009 (ip), vehicle: saline with Tween-80 87 % of control

CC1CC(C)(C)NC(C2CCC=CO2)N1 (stereo not given)
inactive: dose: 44.0 mg/kg/injection, schedule: Q01DX Z (ip), vehicle: saline 115 % of control | dose: 100.0 mg/kg/injection, schedule: Q01DX Z (ip), vehicle: saline 107 % of control

S=C(NCc1ccncc1)Nc1ccccc1Cl
inactive: [6] 101 % of control | [7] 95 % of control | [8] 98 % of control

CC1CN(C2CC3OCC3O2)C(=O)NC1=O (stereo not given)
inactive: [9] 103 % of control | [10] 98 % of control | [11] 98 % of control

O=C1Nc2cccc3cc(O)cc1c23
inactive: [9] 105 % of control | [10] 87 % of control | [11] 92 % of control

Nc1ncccc1O
inactive: dose: 10.0 mg/kg/injection, schedule: Q01DX001 (ip), vehicle: saline 105 % of control | dose: 20.0 mg/kg/injection, schedule: Q01DX001 (ip), vehicle: saline 95 % of control | dose: 40.0 mg/kg/injection, schedule: Q01DX001 (ip), vehicle: saline 94 % of control

NCCc1c[nH]c2ccc(O)cc12 (tested in a mixture with another compound)
inactive: dose: 120.0 mg/kg/injection, schedule: Q01DX009 (ip), vehicle: carboxymethylcellulose (CMC) 107 % of control | [5] 108 % of control | dose: 600.0 mg/kg/injection, schedule: Q01DX001 (ip), vehicle: carboxymethylcellulose (CMC) 108 % of control | dose: 600.0 mg/kg/injection, schedule: Q01DX009 (ip), vehicle: carboxymethylcellulose (CMC) 102 % of control | dose: 800.0 mg/kg/injection, schedule: Q01DX001 (ip), vehicle: carboxymethylcellulose (CMC) 114 % of control | dose: 800.0 mg/kg/injection, schedule: Q01DX009 (ip), vehicle: carboxymethylcellulose (CMC) 119 % of control | dose: 1000.0 mg/kg/injection, schedule: Q01DX001 (ip), vehicle: carboxymethylcellulose (CMC) 106 % of control

CC(=O)Nc1ncc([N+](=O)[O-])s1
inactive: [12] 97 % of control | [2] 98 % of control | [4] 104 % of control

COc1cc2c(cc1I)-c1c(cc(OC)c(OC)c1OC)CC[C@@H]2NC(C)=O
inactive: dose: 17.0 mg/kg/injection, schedule: Q01DX Z (ip), vehicle: carboxymethylcellulose (CMC) 102 % of control | dose: 26.0 mg/kg/injection, schedule: Q01DX Z (ip), vehicle: carboxymethylcellulose (CMC) 108 % of control | dose: 40.0 mg/kg/injection, schedule: Q01DX Z (ip), vehicle: carboxymethylcellulose (CMC) 119 % of control | dose: 49.0 mg/kg/injection, schedule: Q01DX Z (ip), vehicle: carboxymethylcellulose (CMC) 103 % of control | dose: 50.0 mg/kg/injection, schedule: Q01DX009 (ip), vehicle: saline sonified 108 % of control | dose: 60.0 mg/kg/injection, schedule: Q01DX Z (ip), vehicle: carboxymethylcellulose (CMC) 117 % of control | dose: 73.0 mg/kg/injection, schedule: Q01DX Z (ip), vehicle: carboxymethylcellulose (CMC) 103 % of control | dose: 90.0 mg/kg/injection, schedule: Q01DX Z (ip), vehicle: carboxymethylcellulose (CMC) 102 % of control | dose: 100.0 mg/kg/injection, schedule: Q01DX009 (ip), vehicle: saline sonified 106 % of control | [13] 99 % of control | dose: 110.0 mg/kg/injection, schedule: Q01DX Z (ip), vehicle: carboxymethylcellulose (CMC) 103 % of control | dose: 200.0 mg/kg/injection, schedule: Q01DX009 (ip), vehicle: saline sonified 119 % of control | [14] 99 % of control

Clc1ccc2c(Cl)ccnc2c1
inactive: dose: 100.0 mg/kg/injection, schedule: Q04DX002 (ip), vehicle: gum acacia 91 % of control | dose: 200.0 mg/kg/injection, schedule: Q04DX002 (ip), vehicle: gum acacia 95 % of control

c1ccc(CCN2CCOCC2)nc1
inactive: [15] 109 % of control | [16] 96 % of control

CCCCCCCCCCCCCCCC(=O)OC(C)CCC1CCCO1 (stereo not given)
inactive: [9] 90 % of control | [10] 95 % of control | [11] 90 % of control

CN(C)C(=O)/N=N/C(=O)N(C)C
inactive: dose: 25.0 mg/kg/injection, schedule: Q01DX009 (ip), vehicle: saline 97 % of control | dose: 25.0 mg/kg/injection, schedule: Q04DX003 (ip), vehicle: saline 96 % of control | dose: 50.0 mg/kg/injection, schedule: Q01DX009 (ip), vehicle: saline 106 % of control | dose: 50.0 mg/kg/injection, schedule: Q04DX003 (ip), vehicle: saline 102 % of control | [17] 101 % of control | [15] 102 % of control

O=C(O)C1CC2C3CC(C(=O)O)C(C3)C2C1 (stereo not given)
inactive: [17] 96 % of control | [15] 102 % of control | [18] 101 % of control | [16] 100 % of control | [19] 101 % of control | [20] 96 % of control

N#CCC(=O)Cc1ccccc1[N+](=O)[O-]
inactive: [21] 95 % of control | [22] 100 % of control | [23] 94 % of control

Cn1cc(C(O)CN2CCCCC2)c2ccccc21 (stereo not given)
inactive: dose: 25.0 mg/kg/injection, schedule: Q04DX003 (ip), vehicle: saline with Tween-80 104 % of control | dose: 50.0 mg/kg/injection, schedule: Q04DX003 (ip), vehicle: saline with Tween-80 97 % of control

COc1ccccc1/C(C)=N\NC(N)=O
inactive: [9] 97 % of control | [10] 93 % of control | [11] 103 % of control

CC12CCC(C1)C(C)(C)C2[N+]#N (stereo not given)
inactive: [24] 105 % of control

CCOC(=O)C(O)(CC)c1ccncc1C (stereo not given)
inactive: [15] 96 % of control | [16] 98 % of control | [20] 100 % of control

O=C(O)c1ccccc1Cl.[Ni]
inactive: dose: 25.0 mg/kg/injection, schedule: Q04DX002 (ip), vehicle: Klucel (hydroxypropylcellulose) (HPC) 94 % of control | dose: 50.0 mg/kg/injection, schedule: Q04DX002 (ip), vehicle: Klucel (hydroxypropylcellulose) (HPC) 109 % of control

O=C(O)C(O)Cc1ccccc1 (stereo not given)
inactive: dose: 90.0 mg/kg/injection, schedule: Q04DX003 (ip), vehicle: saline 105 % of control | [15] 100 % of control and 107 % of control | dose: 135.0 mg/kg/injection, schedule: Q04DX003 (ip), vehicle: saline 100 % of control | [16] 102 % of control and 107 % of control | dose: 300.0 mg/kg/injection, schedule: Q04DX003 (ip), vehicle: saline 92 % of control | [20] 106 % of control

CN(C(=O)C1CCCCC1)C1CCCCC1O (stereo not given)
inactive: [12] 101 % of control | [2] 93 % of control | [4] 90 % of control

O=C(O)C(CSC(c1ccccc1)c1ccccc1)NC(=O)C(c1ccccc1)c1ccccc1 (stereo not given)
inactive: [6] 112 % of control | [13] 97 % of control | [7] 101 % of control | [14] 99 % of control | [8] 98 % of control | dose: 400.0 mg/kg/injection, schedule: Q04DX003 (ip), vehicle: Klucel (hydroxypropylcellulose) (HPC) 94 % of control

NC(=O)NC(NC(N)=O)C(Cl)(Cl)Cl
inactive: [17] 101 % of control | [21] 100 % of control | [18] 102 % of control | [22] 100 % of control | [19] 102 % of control | [23] 100 % of control

Cc1ccc(OS(=O)(=O)c2cccc([N+](=O)[O-])c2)cc1
inactive: [21] 102 % of control | [22] 97 % of control | [23] 100 % of control

O=[N+]([O-])c1ccc2c(c1)[As](=O)(O)c1cc([N+](=O)[O-])ccc1-2
inactive: [24] 120 % of control

O=[N+]([O-])c1cccc(/C=N/Nc2nnc(N/N=C/c3cccc([N+](=O)[O-])c3)c3ccccc23)c1
inactive: dose: 50.0 mg/kg/injection, schedule: Q01DX001 (ip), vehicle: carboxymethylcellulose (CMC) 98 % of control | [1] 98 % of control | [3] 87 % of control | [5] 93 % of control
